For test [1], the system named is p75. Nature of the test: p75 signal transduction in melanocytes (JNK activation, intracellular ceramide). It counts as cell-based, human. The protocol:
To investigate p75 signal transduction, it was first determined by RT-PCR that trkA and trkC are not expressed in MC maintained in choleragen/TPA-free medium. MC were incubated with 10 ng/ml nerve growth factor (NGF) or neurotrophin-3 (NT-3) for 30 minutes and c-Jun amino terminal kinase (JNK) activation was determined. […] Furthermore, within 3 hours p75 activation by NGF, but not by NT-3, lead to a 2-fold increase of intracellular ceramide. As before, ceramide increase was abrogated by pre-incubation with the cyclic peptide. Because in cell lines, UV irradiation directly activates cell surface receptors such as Fas and the TNFα receptor, sham- or UV-irradiated MC were used to determine p75 activation.

Test [2] concerns MM4 cells. Nature of the test: DNA fragmentation (DNA ladder) after UV irradiation, FIG. 3A. It counts as cell-based, human. To be noted: 50 ng/ml NGF, 24 hours after UV irradiation. The protocol: Cells in 100 mm tissue culture dishes were washed with cold PBS and disrupted in lysis buffer pH8 (10 mM tris, 150 mM NaCl, 0.1 mM EDTA, 1% SDS, 200 µg/ml proteinase K). After 15 hour incubation at […], samples were extracted twice with phenol plus chloroform (1:1, V/V) and precipitated overnight with ethanol (2.5×volume) and 3 M sodium acetate (1/10×volume). The DNA was then digested with DNAse free ribonuclease ([…]) for one hour at […], separated on 1% agarose gel and stained with ethidium bromide. The size marker is 100 bp DNA ladder (STD) (Gibco/BRL, Gaithersburg, Md.).
Melanocytes or MM4 cells were plated as described in Example 1. After irradiation, melanocytes were maintained in basal melanocyte medium lacking FBS and hydrocortisone, with 50 ng/ml NGF or diluent alone (melanocyte medium). MM4 cells were maintained in DME supplemented with 50 ng/ml NGF or diluent alone.
The standard (STD) is 100 bp DNA ladder (Gibco/BRL). (See FIG. 3A).

Test [3] has as its system human melanocytes. It counts as cell-based.
For test [4], the system named is melanocytes. Nature of the test: Apoptosis (propidium iodide-positive nuclei) in UV-irradiated melanocytes. It counts as cell-based, human. To be noted: UV 10 mJ/cm^2, 50 ng/ml NGF, 24 hours after irradiation; diluent about 30%. The protocol:
To determine if melanocyte apoptosis is mediated by p75 NGF-R, cultures were treated as above, and then incubated in the presence of a blocking anti-human p75 NGF-R monoclonal antibody believed to act as a pseudo-ligand for the p75 NGF-R. (Anti-human p75 NGF-R monoclonal antibody courtesy of Moses V. Chao, Cornell University Medical Center, New York, N.Y.; Ross, et al., Proc. Natl. Acad. Sci. 81:6681 (1984)).
Melanocytes were cultured on 8 chamber tissue culture slides (Nunc Inc., Naperville, Ill.) and were UV irradiated with 10 mJ/cm^2 as above. Four microM of propidium iodide (PI) was added to melanocyte cultures 24 hours after irradiation, for 5 minutes at […]. Cultures were washed with PBS and nuclei were analyzed using a Leitz confocal laser microscope (Leica, Deerfield, Ill.).
Melanocytes were sham or UV irradiated with 10 mJ/cm^2 and 25 mJ/cm^2. Twenty-four hours after irradiation, […] of propidium iodide was added to cultures as above and cells were viewed with fluorescent phase contrast Nikon microscope. The number of fragmented or homogeneously stained nuclei versus nonstained nuclei was determined in several representative fields and expressed as a percent of total cells. A minimum of 130 cells were counted for each condition.
Melanocytes were irradiated with 10 mJ/cm^2 or were sham irradiated as in Example 1 and then provided 50 ng/ml NGF or diluent alone. […]

The results in this text go back to patent US6867179B1, “Methods of inducing hair growth and coloration” (Trustees of Boston University, priority 1994, dated 2005).

Entries after “also recorded” stand apart in the source; their conditions may differ.

For “NGF: nerve growth factor, neurotrophin ligand of p75 NGF-R and trk”, in test [1] (10 ng/ml, 30 minutes, MC without trkA and trkC), the “JNK activation (phosphorylation of GST-c-Jun(1-79))” value is listed as “substantially induced phosphorylation of GST-c-Jun(1-79)”. Also, in test [1] (within 3 hours), the “Increase of intracellular ceramide” value came to 2 fold. In test [2], the “DNA fragmentation after UV irradiation” value is reported as “not fragmented; also recorded: far less fragmentation”. In addition, the “Cell yields of melanocytes versus diluent alone” value in test [3] (UV 10 mJ/cm^2, 50 ng/ml NGF, 7 experiments) is “significantly higher”. Besides, in test [3] (determined daily for 19 days), the “Cell yields, NGF-treated versus control cultures” value is “up to 6.5 fold” and the “Thymidine labeling index, NGF-treated versus control cultures” value is given as at most 10 fold. In test [3] (melanocytes and MM4 cells, 50 ng/ml NGF), the “Appearance of cultures after UV irradiation” value is “appeared healthy”. Further, in test [4], the “Nuclei showing fragmentation (propidium iodide positive)” value was 12%.
